Measured values as given in PMC10674565 (Pharmaceuticals, 2023).

Key:
[1] = Cytotoxicity (MTT) assay, HEK293 cells; type: cell-based; conditions: human, 1–500 µM, read-out: viability compared to the control
Description: Caco-2 and HEK93 cells were incubated in a 96-well microplate (10^4 cells per well) with different concentrations (1, 10, 50, 100, and 500 µM) of EMHPS for 24 h. At the end of incubation, 20 μL of 0.5% 3-(4,5-dimethylthiazol-2-yl)-2,5-diphenyltetrazolium bromide (MTT) was added to each well, followed by a 2 h incubation. The MTT solution was then aspirated and 200 μL of […] dimethyl sulfoxide solution (PanEko) was added. Absorption was recorded after 10 min at 530 nm with a Stat Fax 2100 plate reader (Awareness Technology, Palm City, FL, USA). The survival of cells in the presence of EMHPS was calculated according to the equation: (optical density (OD) of test wells − OD of medium)/(OD of control wells − OD of medium) × 100%, where OD is the optical density.

ABCB1 [2] = target: ABCB1 (Homo sapiens, UniProt P08183); test: Effect on ABCB1-mediated transport of fexofenadine through the Caco-2 cells monolayer
Sequence of ABCB1 (Homo sapiens, UniProt P08183) (P08183 whole entry): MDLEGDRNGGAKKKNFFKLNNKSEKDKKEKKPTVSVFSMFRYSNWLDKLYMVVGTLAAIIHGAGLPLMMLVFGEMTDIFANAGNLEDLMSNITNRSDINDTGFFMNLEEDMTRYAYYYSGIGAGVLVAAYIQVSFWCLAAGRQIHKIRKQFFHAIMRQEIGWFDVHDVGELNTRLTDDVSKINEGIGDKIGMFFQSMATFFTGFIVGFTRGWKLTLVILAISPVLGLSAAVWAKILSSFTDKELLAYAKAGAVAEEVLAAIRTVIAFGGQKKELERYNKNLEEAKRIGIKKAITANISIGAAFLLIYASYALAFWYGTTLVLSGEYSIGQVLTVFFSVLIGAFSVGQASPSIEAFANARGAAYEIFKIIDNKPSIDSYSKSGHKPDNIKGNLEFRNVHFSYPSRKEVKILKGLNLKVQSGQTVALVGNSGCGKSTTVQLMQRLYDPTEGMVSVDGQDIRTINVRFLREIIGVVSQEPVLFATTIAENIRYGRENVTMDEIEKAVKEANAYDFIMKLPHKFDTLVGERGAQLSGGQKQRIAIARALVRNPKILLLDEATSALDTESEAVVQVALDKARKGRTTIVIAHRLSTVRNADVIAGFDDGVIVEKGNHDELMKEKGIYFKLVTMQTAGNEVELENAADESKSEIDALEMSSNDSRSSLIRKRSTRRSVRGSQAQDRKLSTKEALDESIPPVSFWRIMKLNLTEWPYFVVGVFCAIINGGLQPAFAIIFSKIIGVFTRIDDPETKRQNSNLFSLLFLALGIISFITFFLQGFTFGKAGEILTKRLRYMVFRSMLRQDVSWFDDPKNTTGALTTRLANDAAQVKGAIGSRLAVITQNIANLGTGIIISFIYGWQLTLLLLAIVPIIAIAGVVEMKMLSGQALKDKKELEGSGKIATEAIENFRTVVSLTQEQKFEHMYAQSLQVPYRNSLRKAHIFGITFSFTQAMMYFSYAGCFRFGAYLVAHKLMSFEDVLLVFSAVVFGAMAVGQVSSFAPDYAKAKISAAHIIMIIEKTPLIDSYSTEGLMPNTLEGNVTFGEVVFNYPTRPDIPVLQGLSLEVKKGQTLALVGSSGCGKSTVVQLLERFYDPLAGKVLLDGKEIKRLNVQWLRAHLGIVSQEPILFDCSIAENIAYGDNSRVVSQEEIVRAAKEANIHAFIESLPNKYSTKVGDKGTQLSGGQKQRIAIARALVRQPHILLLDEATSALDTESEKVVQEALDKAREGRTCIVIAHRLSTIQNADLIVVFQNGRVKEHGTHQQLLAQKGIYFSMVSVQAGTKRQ
Description: Transport experiments were carried out in Transwell® systems (12 mm Transwell® with 0.4 µm Pore Polycarbonate Membrane Insert, Sterile, «Corning»). The Transwell® system consists of two chambers, apical and basolateral. […] The medium was changed every 2–3 days. The apical and basolateral chambers represent the luminal and blood/mesenteric lymph sides of the gastrointestinal tract, respectively.
The transepithelial electrical resistance (TEER) across the cell monolayers was monitored using a Millicell-ERS (electrical resistance system) to assess cell monolayer integrity. For transport studies, only monolayers with a TEER > 500 Ω cm^2 were used.
To study the roles of different parts of the EMHPS molecule for its action on ABCB1, experiments with succinic acid were also carried out.
Prior to the transport experiments, the culture media was aspirated, and the monolayers were washed twice with transport medium and preincubated with EMHPS, succinic acid, or verapamil for 30 min.
The data are presented as the mean ± SD from three monolayers.
The resulting sample of the transport medium (50 μL) was diluted in 150 μL of the mobile phase, and 100 μL of the resulting solution was injected into the chromatograph. A Phenomenex Synergi 4u Polar-RP 80A (250 × 4.6) chromatographic column was used for analysis. The separation temperature was 35 °C; the flow rate was 1 mL/min. Composition of the mobile phase: acetonitrile (128 mL), deionized water (267.4 mL), acetic acid (6.33 mL), triethylamine to pH = 6.7. […] Detection was carried out at a wavelength of 220 nm.
Half maximal inhibitory concentration (IC50) values were determined through nonlinear regression based on the three-parameter logistic function.

ABCB1 [3] = test: Effect on expression of ABCB1 in Caco-2 cells (Western blot); type: cell-based, human; conditions: 1, 10, and 100 µM, 24 h incubation
Description: To test the effect of EMHPS on the expression of ABCB1 and SLCO1B1, Caco-2 or HepG2 cells, respectively, were cultured on a 6-well plate. EMHPS was used at concentrations of 1, 10, and 100 µM, and the duration of exposure was 24 h. After the incubation, the cells were removed from the surface of the wells with a trypsin–EDTA solution (0.25% trypsin and 0.2% EDTA, Sigma-Aldrich, St. Louis, MO, USA).
The expression levels of ABCB1 and SLCO1B1 were analyzed via Western blot.
Cells were lysed with NP40 Cell Lysis Buffer Thermo (Thermo Fisher Scientific) with protease inhibitors (Sigma Aldrich, St. Louis, MO, USA) for 30 min at +4 °C with constant stirring at a rate of 10^7 cells per 100 µL of buffer. Protein concentrations were quantified with the Pierce Coomassie Plus Assay Kit (Thermo Fisher, Rockford, IL, USA). […]
The protein content was measured relative to the level of housekeeping protein GAPDH (primary antibodies: GAPDH Loading Control Monoclonal Antibody (GA1R) and […] (Invitrogen); secondary antibodies: secondary rabbit antibodies to primary GAPDH antibodies—Rabbit-anti-Mouse IgG (H + L) Secondary Antibody and HRP (Invitrogen). Chemiluminescence was recorded using ChemiDocXRS+ (Bio-Rad). The intensity of the obtained bands was analyzed densitometrically using ImageLab 6.0.0 software (Bio-Rad).

SLCO1B1 = target: T1, SLCO1B1 (Homo sapiens, UniProt Q9Y6L6); conditions: HEK293-SLCO1B1 vs HEK293, 10 µM
T1 sequence (Q9Y6L6 1-691): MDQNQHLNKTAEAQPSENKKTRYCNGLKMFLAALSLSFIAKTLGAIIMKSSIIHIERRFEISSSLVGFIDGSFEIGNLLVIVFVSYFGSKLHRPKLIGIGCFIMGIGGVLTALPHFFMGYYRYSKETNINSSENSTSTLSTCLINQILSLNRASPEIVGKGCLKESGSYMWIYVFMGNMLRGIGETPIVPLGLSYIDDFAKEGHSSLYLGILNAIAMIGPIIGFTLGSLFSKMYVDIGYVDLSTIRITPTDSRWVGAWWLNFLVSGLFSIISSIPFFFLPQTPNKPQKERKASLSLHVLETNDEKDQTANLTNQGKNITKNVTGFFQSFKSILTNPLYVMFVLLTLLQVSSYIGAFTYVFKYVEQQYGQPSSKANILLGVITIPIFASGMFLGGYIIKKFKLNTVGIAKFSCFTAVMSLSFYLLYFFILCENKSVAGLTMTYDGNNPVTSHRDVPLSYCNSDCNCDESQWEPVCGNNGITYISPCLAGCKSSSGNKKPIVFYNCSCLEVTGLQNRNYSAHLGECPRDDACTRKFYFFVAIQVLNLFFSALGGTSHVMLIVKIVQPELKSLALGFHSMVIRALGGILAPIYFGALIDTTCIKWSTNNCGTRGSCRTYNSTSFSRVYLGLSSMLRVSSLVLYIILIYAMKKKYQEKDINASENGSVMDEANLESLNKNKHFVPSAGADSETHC

chronic brain ischemia = system: chronic brain ischemia; design: method as in PMID 34932280; conditions: 318 patients with chronic brain ischemia; cited from earlier work
[4] = human, Caco-2 cell monolayer on Transwell inserts, probe fexofenadine 150 µmol/L

Structure (SMILES): CCc1nc(C)ccc1O.O=C(O)CCC(=O)O [EMHPS, 2-Ethyl-6-methyl-3-hydroxypyridine succinate]
- viability at 24 h [1]: 85 to 105%
- IC50 (ABCB1 [2]): 92 ± 24.3 µM
- decrease of basal-to-apical fexofenadine transport (ABCB1 [2]; 200 µM, vs control, Caco-2 monolayer): 52.5%
- inhibition at 50 µM (ABCB1 [2]; [4]): 50.2%
- inhibition at 100 µM (ABCB1 [2]; [4]): 72.9%
- inhibition at 200 µM (ABCB1 [2]; [4]): 90.6%
- effect on expression of ABCB1 (ABCB1 [3]): did not significantly affect
- substrate of SLCO1B1 (SLCO1B1): not a substrate of SLCO1B1
- benefit over the placebo in basic neurological tests (chronic brain ischemia): statistically significant benefit
